Test results reported in patent US8183236B2, “Compounds with HIV-1 integrase inhibitory activity and use thereof as anti-HIV/AIDS therapeutics” (University of Southern California, priority 2007, dated 2012).

target: T1, HIV-1 integrase (wild-type IN) (Human immunodeficiency virus type 1 group M subtype B, UniProt P12497); assay: HIV-1 integrase 3′-processing assay (32P-labeled 21-mer, gel); type: biochemical; details: unit inferred; read-out: HIV-1 IN Inhibitory Activities 3′-processing
Method in brief: (§1)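 Wild-type IN at 200 nM preincubated with inhibitor 30 min at 30 °C in MnCl2 (7.5 mM), pH 7.2 MOPS buffer with 10% DMSO, then 20 nM 5′-32P-labeled 21-mer duplex added for 1 h. 19-mer and strand-transfer products resolved on denaturing 20% gels by phosphorimaging; IC50 from log concentration versus % inhibition.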

`Cc1cc2nc(-c3cc(NC(=O)c4ccc(F)cc4)ccc3O)oc2cc1C` [XR16] and `COc1ccccc1C(=O)Nc1ccc(O)c(-c2nc3cc(C)ccc3o2)c1` [XR22] cannot be ordered by IC50: < 100 µM for the first, < 100 µM for the second.

`COc1ccc(C(=O)Nc2ccc(O)c(-c3nc4ccccc4o3)c2)cc1[N+](=O)[O-]` [XR17] and `COc1cc(C(=O)Nc2ccc(O)c(-c3nc4ccccc4o3)c2)cc(OC)c1OC` [XR18] cannot be ordered by IC50: 6 µM for the first, < 100 µM for the second.

`O=C(Nc1ccc(O)c(-c2nc3ccccc3o2)c1)c1ccccc1F` [XR19] and `O=C(Nc1ccc(O)c(-c2nc3ccccc3o2)c1)c1cccc2ccccc12` [XR21] cannot be ordered by IC50: < 100 µM for the first, 14 µM for the second.

same assay, conditions: wild-type IN 200 nM, 7.5 mM MnCl2; read-out: Inhibition of IN Catalytic Activities IC50 (μM) 3′-processing

Going from `C=CCn1c(=O)c(C(=O)Nc2ccccc2S(N)(=O)=O)c(O)c2ccccc21` [XR7] to `CCCCn1c(=O)c(C(=O)Nc2ccccc2S(N)(=O)=O)c(O)c2ccccc21` [XR14], the IC50 falls from 83 µM to 15 µM (5.5-fold).

Compared with `Cn1c(=O)c(C(=O)Nc2ccccc2S(N)(=O)=O)c(O)c2ccccc21` [XR8], `CCCCCn1c(=O)c(C(=O)Nc2ccccc2S(N)(=O)=O)c(O)c2ccccc21` [XR13] is 4.5-fold lower in IC50: 50 µM for the first, 11 µM for the second.

`CCn1c(=O)c(C(=O)Nc2ccccc2O)c(O)c2ccccc21` [XR10] and `Cn1c(=O)c(C(=O)Nc2ccccc2C(F)(F)F)c(O)c2ccccc21` [XR12] are within 1.5-fold of each other in IC50: 72 µM for the first, 81 µM for the second.

`O=C(NNC(=O)c1c(O)c2ccccc2[nH]c1=O)c1ccccc1Cl` [XR44] was tested, and the IC50 was 28 µM.

target: T1, HIV-1 integrase (wild-type IN); assay: HIV-1 integrase strand transfer assay (32P-labeled 21-mer, gel); type: biochemical; details: unit inferred; read-out: HIV-1 IN Inhibitory Activities Strand transfer
Method in brief: as §1

`Cc1cc2nc(-c3cc(NC(=O)c4ccc(F)cc4)ccc3O)oc2cc1C` [XR16] and `COc1ccccc1C(=O)Nc1ccc(O)c(-c2nc3cc(C)ccc3o2)c1` [XR22] cannot be ordered by IC50: < 100 µM for the first, < 100 µM for the second.

`COc1ccc(C(=O)Nc2ccc(O)c(-c3nc4ccccc4o3)c2)cc1[N+](=O)[O-]` [XR17] and `COc1cc(C(=O)Nc2ccc(O)c(-c3nc4ccccc4o3)c2)cc(OC)c1OC` [XR18] cannot be ordered by IC50: 7 µM for the first, < 100 µM for the second.

`O=C(Nc1ccc(O)c(-c2nc3ccccc3o2)c1)c1ccccc1F` [XR19] and `O=C(Nc1ccc(O)c(-c2nc3ccccc3o2)c1)c1cccc2ccccc12` [XR21] cannot be ordered by IC50: < 100 µM for the first, 6 µM for the second.

same assay, conditions: wild-type IN 200 nM, 7.5 mM MnCl2; read-out: Inhibition of IN Catalytic Activities IC50 (μM) Strand Transfer

Compared with `C=CCn1c(=O)c(C(=O)Nc2ccccc2S(N)(=O)=O)c(O)c2ccccc21` [XR7], `CCCCn1c(=O)c(C(=O)Nc2ccccc2S(N)(=O)=O)c(O)c2ccccc21` [XR14] is 2.6-fold lower in IC50: 45 µM for the first, 17 µM for the second.

Going from `Cn1c(=O)c(C(=O)Nc2ccccc2S(N)(=O)=O)c(O)c2ccccc21` [XR8] to `CCCCCn1c(=O)c(C(=O)Nc2ccccc2S(N)(=O)=O)c(O)c2ccccc21` [XR13], the IC50 falls from 39 µM to 13 µM (3-fold). The second is the more potent here.

`CCn1c(=O)c(C(=O)Nc2ccccc2O)c(O)c2ccccc21` [XR10] and `Cn1c(=O)c(C(=O)Nc2ccccc2C(F)(F)F)c(O)c2ccccc21` [XR12] are within 1.5-fold of each other in IC50: 32 µM for the first, 28 µM for the second.

For `O=C(NNC(=O)c1c(O)c2ccccc2[nH]c1=O)c1ccccc1Cl` [XR44], the IC50 was 26 µM.
